Data published in patent US4957902A, “Peptide inhibitors of wound contraction” (Board of Regents, the University of Texas System, priority 1988, dated 1990).

System: Human skin fibroblasts on collagen-coated surfaces
Type: cell-based
Conditions: 0.5 mg/ml peptide; serum-free DMEM; 60 minutes
Description: The incubations contained peptides at the concentrations indicated and cell spreading was measured after 60 minute Method: Falcon 35 mm tissue culture dishes were coated with collagen (Vitrogen 100; 50 ug/ml in DMEM) for 15 minutes at 37° C. and counter-coated for 15 minutes with 1 mg/ml heat denatured bovine serum albumin. Human skin fibroblasts in DMEM with peptides added at the concentrations indicated were incubated on the substrata for 60 minutes at 37°. The end of the incubations, the cells were fixed and projected cell surface areas were measured by superimposing the microscopic field on the digitizing tablet of a Zidas image analyzer. Data presented are averages±95% confidence limits based on measurement of 50-100 cells. See reference 21 for complete details.

N=C(N)NCCC[C@H](NC(=O)CN)C(=O)NCC(=O)N[C@@H](CC(=O)O)C(=O)N[C@@H](CO)C(=O)N1CCC[C@H]1C(=O)O [GRGDSP, Gly--Arg--Gly--Asp--Ser--Pro]
inhibition of cell spreading on collagen-coated surfaces: about 50%
